Here are results for 14 compounds from patent US6448405B1, “Steroid receptor modulator compounds and methods” (Ligand Pharmaceuticals Incorporated, priority 1994, dated 2002).

Where two headings read alike, the source gives them in different places. Some results are limits rather than exact numbers.

The target of assay [1] is T1, human PR-B (Homo sapiens, UniProt P06401).
T1 construct: expressed in transfected cells; host or cells: CV-1 cells (African green monkey kidney fibroblasts), transient transfection
T1 sequence (P06401 1-933): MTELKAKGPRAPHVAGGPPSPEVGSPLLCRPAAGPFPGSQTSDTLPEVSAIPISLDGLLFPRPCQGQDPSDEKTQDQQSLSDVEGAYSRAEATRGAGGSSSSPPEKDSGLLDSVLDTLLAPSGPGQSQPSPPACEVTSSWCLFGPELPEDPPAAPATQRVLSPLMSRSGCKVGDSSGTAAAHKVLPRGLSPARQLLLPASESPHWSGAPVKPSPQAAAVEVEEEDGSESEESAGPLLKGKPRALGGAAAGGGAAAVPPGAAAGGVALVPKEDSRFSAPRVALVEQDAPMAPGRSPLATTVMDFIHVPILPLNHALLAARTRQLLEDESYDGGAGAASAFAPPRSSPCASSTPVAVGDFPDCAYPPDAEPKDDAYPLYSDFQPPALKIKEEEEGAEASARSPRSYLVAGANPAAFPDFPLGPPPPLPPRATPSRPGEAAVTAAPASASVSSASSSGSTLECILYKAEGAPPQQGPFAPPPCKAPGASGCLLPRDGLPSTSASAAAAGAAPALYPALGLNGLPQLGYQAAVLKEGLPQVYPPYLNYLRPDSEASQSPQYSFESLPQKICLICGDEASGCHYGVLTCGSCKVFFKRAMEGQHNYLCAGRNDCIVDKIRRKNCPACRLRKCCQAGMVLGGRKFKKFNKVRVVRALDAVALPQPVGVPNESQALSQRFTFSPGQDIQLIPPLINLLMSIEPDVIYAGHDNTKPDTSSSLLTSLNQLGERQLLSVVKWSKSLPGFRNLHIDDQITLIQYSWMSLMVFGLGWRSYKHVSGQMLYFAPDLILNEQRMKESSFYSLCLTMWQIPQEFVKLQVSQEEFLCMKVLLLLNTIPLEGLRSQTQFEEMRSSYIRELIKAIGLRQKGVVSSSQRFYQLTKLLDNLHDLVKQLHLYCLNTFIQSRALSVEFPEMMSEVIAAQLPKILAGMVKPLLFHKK
Kind of assay: Co-transfection assay, PR agonist and antagonist activity, CV-1 cells.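 On all read-outs here: luciferase reporter driven by a hormone response element, co-transfected with human PR-B into CV-1 monkey kidney cells, agonists raise and antagonists lower the reporter signal.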 To be noted: for EC50: agonist mode, read-out: PR Agonist CV-1 Cells Potency. It counts as cell-based.

The target of assay [2] is T2, human progesterone receptor A form (PR-A) (Homo sapiens, UniProt P06401).
T2 sequence (P06401 1-769 isoform P06401-2): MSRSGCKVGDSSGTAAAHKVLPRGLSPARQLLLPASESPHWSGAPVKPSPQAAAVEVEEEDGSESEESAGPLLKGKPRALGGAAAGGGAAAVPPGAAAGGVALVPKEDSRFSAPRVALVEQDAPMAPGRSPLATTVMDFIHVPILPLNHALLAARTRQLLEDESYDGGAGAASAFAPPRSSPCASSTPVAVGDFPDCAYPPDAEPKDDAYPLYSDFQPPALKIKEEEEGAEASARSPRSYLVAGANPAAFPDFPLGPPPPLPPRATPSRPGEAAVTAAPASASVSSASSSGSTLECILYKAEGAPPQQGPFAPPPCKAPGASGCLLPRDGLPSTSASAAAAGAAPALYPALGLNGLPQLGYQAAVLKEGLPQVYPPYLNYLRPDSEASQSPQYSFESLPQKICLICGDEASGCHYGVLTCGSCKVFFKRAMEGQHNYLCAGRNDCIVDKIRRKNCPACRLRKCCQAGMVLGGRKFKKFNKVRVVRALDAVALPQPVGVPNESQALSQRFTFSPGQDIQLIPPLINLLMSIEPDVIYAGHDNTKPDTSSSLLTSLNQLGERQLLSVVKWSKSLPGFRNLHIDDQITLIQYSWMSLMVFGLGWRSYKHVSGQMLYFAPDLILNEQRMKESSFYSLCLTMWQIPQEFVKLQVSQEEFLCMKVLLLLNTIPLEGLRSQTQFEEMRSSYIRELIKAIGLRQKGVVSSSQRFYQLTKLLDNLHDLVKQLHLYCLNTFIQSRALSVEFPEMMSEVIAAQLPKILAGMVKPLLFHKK
As to the kind of experiment: PR binding assay, baculovirus extract, [3H] progesterone.

The mark [3] stands for this setting: read-out: PR Antagonist CV-1 Cells Potency.

As for `CC1C(=O)C(C)(C)Nc2ccc(-c3cc(F)cc(C#N)c3)cc21` (stereo not shown) [Compound 286, 6-(3-Cyano-5-Fluorophenyl)-1,2-dihydro-2,2,4-trimethyl-3-quinolone], in assay [1], the “PR Agonist CV-1 Cells Efficacy (%)” value was “na (na = not active (i.e. efficacy or <20 and potency of >10,000))”; the “PR Antagonist CV-1 Cells Efficacy (%)” value is 84%; the EC50 is greater than 10 µM. The IC50 in assay [1] (setting [3]) came out at 0.155 µM. Besides, the Ki (as a rule, a measure of affinity in units of concentration, obtained from inhibition or displacement) in assay [2] (read-out: PR Binding Ki) was determined as 0.061 µM.
For the compound `CC1=CC(C)(C)Nc2ccc3c(c21)COc1c(Cl)cccc1-3` [Compound 331, (R/S)-7-Chloro-1,2-dihydro-2,2,4-trimethyl-5H-chromeno[3,4-f]quinoline], in assay [1], the “PR Agonist CV-1 Cells Efficacy (%)” value is “na (na = not active (i.e. efficacy or <20 and potency of >10,000))”; the “PR Antagonist CV-1 Cells Efficacy (%)” value was 88%; the EC50 was greater than 10 µM. In addition, the IC50 in assay [1] (setting [3]) came to 0.21 µM. Also, in assay [2] (competition with [3H] progesterone, 4° C., 16 hours, read-out: PR Binding Ki), the Ki came out at 0.273 µM.
With `CC1(C)C=Cc2c(ccc3c2c(=O)oc2ccc(Cl)cc23)N1` [Compound 313, 9-Chloro-1,2-dihydro-2,2-dimethyl-5-coumarino[3,4-f]quinoline], the EC50 in assay [1] was 0.3 µM. For the same compound, the IC50 in assay [1] (setting [3]) was determined as 0.14 µM. Further, the Ki in assay [2] (read-out: PR Binding Ki) turned out to be 0.087 µM.
For `CC1=CC(C)(C)Nc2ccc(-c3nn(C)cc3Br)cc21` [Compound 104, 6-(4-Bromo-1-methylpyrazol-3-yl)-1,2-dihydro-2,2,4-trimethylquinoline], in assay [1], the “PR Agonist CV-1 Cells Efficacy (%)” value turned out to be 39%, the “PR Antagonist CV-1 Cells Efficacy (%)” value is 71% and the EC50 was determined as 2.75 µM. Further, the IC50 in assay [1] (setting [3]) stood at 0.12 µM. For the same compound, the Ki in assay [2] (read-out: PR Binding Ki) was found to be 0.082 µM.
As to `CC1=CC(C)(C)Nc2ccc(-c3cccc([N+](=O)[O-])c3)c(Cl)c21` [Compound 310, 5-Chloro-1,2-dihydro-2,2,4-trimethyl-6-(3-nitrophenyl)quinoline], in assay [1], the “PR Agonist CV-1 Cells Efficacy (%)” value is “na (na = not active (i.e. efficacy or <20 and potency of >10,000))”; the “PR Antagonist CV-1 Cells Efficacy (%)” value stood at 70%; the EC50 was greater than 10 µM. For the same compound, in assay [1] (setting [3]), the IC50 amounted to 0.26 µM. The Ki in assay [2] (read-out: PR Binding Ki) turned out to be 0.007 µM.
Turning to `CC1(C)Nc2ccc3c(c2C(=O)C1(C)C)C(c1ccc(Cl)cc1)Oc1ccccc1-3` (racemic) [Compound 379, (R/S)-5-(4-Chlorophenyl)-1,2,3,4-tetrahydro-2,2,3,3-tetramethyl-5H-chromeno[3,4-f]-4-quinolinone], in assay [1], the “PR Agonist CV-1 Cells Efficacy (%)” value is “na (na = not active (i.e. efficacy or <20 and potency of >10,000))”; the “PR Antagonist CV-1 Cells Efficacy (%)” value stood at 87%; the EC50 was greater than 10 µM. For the same compound, the IC50 in assay [1] (setting [3]) was 0.35 µM. Moreover, the Ki in assay [2] (read-out: PR Binding Ki) worked out at 0.025 µM.
For `CC1=CC(C)(C)Nc2ccc(-c3csc(C#N)c3)cc21` [Compound 452, 6-(5-Cyano-3-thienyl)-1,2-dihydro-2,2,4-trimethylquinoline], in assay [1], the IC50 came out at 0.024 µM and the EC50 turned out to be 2.4 µM. The compound further showed a Ki in assay [2] of 0.017 µM.
For `CC1(C)C=Cc2c(ccc3c2/C(=C/c2ccccc2)Oc2ccc(Cl)cc2-3)N1` [Compound 368, (Z)-5-Benzylidene-9-chloro-1,2-dihydro-2,2-dimethyl-5H-chromeno[3,4-f]quinoline], in assay [1], the “PR Agonist CV-1 Cells Efficacy (%)” value is 183%; the “PR Antagonist CV-1 Cells Efficacy (%)” value is “na (na = not active (i.e. efficacy or <20 and potency of >10,000))”; the EC50 was determined as 0.043 µM. In assay [1] (setting [3]), the IC50 was greater than 10 µM. Moreover, in assay [2] (read-out: PR Binding Ki), the Ki came to 0.004 µM.
As for `CC1C(=O)C(C)(C)Nc2ccc3c(c21)/C(=C/c1cccc(F)c1)Oc1ccccc1-3` (racemic) [Compound 389, (Z)-(R/S)-5-(3-Fluorobenzylidene)-1,2,3,4-tetrahydro-2,2,4-trimethyl-5H-chromeno[3,4-f]-3-quinolinone], in assay [1], the “PR Agonist CV-1 Cells Efficacy (%)” value was found to be 133%; the “PR Antagonist CV-1 Cells Efficacy (%)” value was “na (na = not active (i.e. efficacy or <20 and potency of >10,000))”; the EC50 is 0.017 µM. Also, in assay [1] (setting [3]), the IC50 was greater than 10 µM. In addition, the Ki in assay [2] (read-out: PR Binding Ki) was found to be 0.004 µM.
Consider `CC1=CC(C)(C)Nc2ccc3c(c21)/C(=C/c1ccccc1F)Oc1ccccc1-3` [Compound 228, (Z)-5-(2-Fluorobenzylidene)-1,2-dihydro-2,2,4-trimethyl-5H-chromeno[3,4-f]quinoline], for which, in assay [1], the IC50 is greater than 10 µM; the “PR Antagonist CV-1 Cells Efficacy (%)” value was “na (key: na = not active (i.e. efficacy or <20 and potency of >10,000))”; the EC50 amounted to 0.04 µM. In assay [2], this compound displayed a Ki of 0.003 µM.
For the compound `CC1=CC(C)(C)Nc2ccc(-n3cnc(Cl)c3Cl)cc21` [Compound 103, 6-(4,5-Dichloroimidazol-1-yl)-1,2-dihydro-2,2,4-trimethylquinoline], in assay [1], the “PR Agonist CV-1 Cells Efficacy (%)” value was “na (na = not active (i.e. efficacy or <20 and potency of >10,000))”; the “PR Antagonist CV-1 Cells Efficacy (%)” value was 91%; the EC50 is greater than 10 µM. Also, the IC50 in assay [1] (setting [3]) is 0.78 µM. Moreover, the Ki in assay [2] (read-out: PR Binding Ki) is 0.372 µM.
As to `CC1=CC(C)(C)Nc2ccc3c(c21)/C(=C/c1ccc(F)cc1)Oc1ccccc1-3` [Compound 221, (Z)-5-(4-Fluorobenzylidene)-1,2-dihydro-2,2,4-trimethyl-5H-chromeno[3,4-f]quinoline], in assay [1], the IC50 was greater than 10 µM; the “PR Antagonist CV-1 Cells Efficacy (%)” value is “na (key: na = not active (i.e. efficacy or <20 and potency of >10,000))”; the EC50 amounted to 0.117 µM. This compound registered an inhibition constant (Ki) in assay [2] of 0.004 µM.
On to `CC1=CC(C)(C)Nc2cc(C)c3c(c21)/C(=C/c1ccccc1)Oc1ccc(F)cc1-3` [Compound 377, (Z)-5-Benzylidene-9-Fluoro-1,2-dihydro-2,2,4,11-tetramethyl-5H-chromeno[3,4-f]quinoline], for which, in assay [1], the “PR Agonist CV-1 Cells Efficacy (%)” value amounted to 101%; the “PR Antagonist CV-1 Cells Efficacy (%)” value is “na (na = not active (i.e. efficacy or <20 and potency of >10,000))”; the EC50 was determined as 0.55 µM. In addition, the IC50 in assay [1] (setting [3]) was greater than 10 µM. In addition, the Ki in assay [2] (read-out: PR Binding Ki) was 0.02 µM.
Regarding `CC1=CC(C)(C)Nc2ccc(-c3cccc(Cl)c3Cl)cc21` [Compound 109, 6-(2,3-Dichlorophenyl)-1,2-dihydro-2,2,4-trimethylquinoline], in assay [1], the “PR Agonist CV-1 Cells Efficacy (%)” value was “na (na = not active (i.e. efficacy or <20 and potency of >10,000))”; the “PR Antagonist CV-1 Cells Efficacy (%)” value is given as 87%; the EC50 was greater than 10 µM. Also, the IC50 in assay [1] (setting [3]) was 0.138 µM. The Ki in assay [2] (read-out: PR Binding Ki) is 0.023 µM.
